System: GMP as DNA constituent
Assay: Reactivity with GMP: adduct formation under physiological and patho-physiological conditions
Assay type: biochemical
Excerpt: The reactivity of the compound cis-dichloro-bis(2-ethanolamine)platinum(II) was examined under physiological and patho-physiological conditions (FIG. 2). […] Chem. 39(4): 836-842 (2000); Choi, Sunhee; Mahalingaiah, Shruthi; Delaney, Sarah; Neale, Nathan R.; Masood, Syed “Substitution and Reduction of Platinum(IV) Complexes by a Nucleotide, Guanosine 5′-Monophosphate” Inorg. Chem. 38(8): 1800-1805 (1999); Chen, Yu; Guo, Zijian; Parkinson, John A.; Sadler, Peter J. “Kinetic control of reactions of a sterically hindered platinum picoline anticancer complex with guanosine 5′-monophosphate and glutathione” J. Chem. Soc., Dalton Trans.), 21: 3577-3586 (1998); Bloemink, Marieke J.; Perez, Janice M. J.; Heetebrij, Robert J.; Reedijk, Jan “The new anticancer drug [(2R)-aminomethylpyrrolidine](1,1-cyclobutanedicarboxylato)platinum(II) and its toxic S enantiomer do interact differently with nucleic acids” J. Biol. Inorg. Chem. 4(5): 554-567 (1999).
Similar to Example 8, the reactivity of the compound bis(2-ethanolatoamine-κ^2N,O)platinum(II) (see Example 8 for the synthesis) was examined. In this respect, the proportion of the nucleotide not modified by the active substance was measured.

Structure (SMILES)	speed of reaction with the nucleotide (proportion of the nucleotide not modified by the active substance) (patho-physiological conditions (pH 6) compared to tissue free of disease (pH 7.4), FIG. 3)	selectivity of reaction, patho-physiological versus physiological conditions (FIG. 2, comparison of left and right diagram)	reactivity: reaction with the biological target (formation of adducts with GMP) (patho-physiological conditions (FIG. 2, left diagram))	reactivity: reaction with the biological target (formation of adducts with GMP) (physiological conditions (FIG. 2, right diagram))
C1C[O][Pt]2([NH]1)[NH]CC[O]2 [(SP-4-2)-[bis(2-aminoethanolato)-κ^2N,O]platinum(II)]	significantly increased speed	–	–	–
OCC[NH][Pt]([Cl])([Cl])[NH]CCO [(SP-4-2)-dichloro[bis(2-hydroxyethylamine)]platinum(II)]	–	Selectivity is therefore present	rapid reaction	clearly runs slower

Reference: patent US20050026896A1, “Platinum(II) and platinum(IV) complexes and their use” (Faustus Forschungs Cie. Translational Cancer Research GmbH, priority 2001, published 2005)
